Assay results reported in paper PMC11343458, “Extracellular proteolysis of tandemly duplicated pheromone propeptides affords additional complexity to bacterial quorum sensing” (PLOS Biology, 2024).
Like-named read-outs stand apart in the source and are kept apart here. No end group written: not given here.

Key:
Rap^3T = experiment: Microscale thermophoresis (MST) of peptide binding to Rap^3T; set-up: species or system Bacillus phage phi3T
Protocol: Rap^3T was fluorescently labeled with NT-647 amine reactive dye from the Monolith NT Protein Labeling kit RED-NHS (NanoTemper Technologies) according to the manufacturer’s instructions. Briefly, 100 μm solution of the protein was mixed with 3× dye solution, incubated 30 min in dark, and then purified by gravity in a 5 ml size exclusion column equilibrated with dialysis buffer (20 mM Tris-HCl (pH 8), 250 mM NaCl) supplemented with 0.1% pluronic and 5% glycerol to remove free dye. Rap^105 was fluorescently labeled using His-Tag Labeling Kit RED-tris-NTA 2nd Generation. Briefly, 500 nM of protein was mixed with 5 μm dye in PBS supplemented with 0,02% of tween incubated in dark at room temperature for 30 min and centrifuged at 10,000 g for 10 min at 4°C, transferred to a fresh tube, and used in the assays immediately. Labeled proteins were used at a final optimized concentration of 20 nM in the case of Rap^3T and 250 nM in the case of Rap^105. For the measurements of EC50, a 16-point 2-fold serial dilution (ranged from 2 to 3 × 10^−5 μm) of the peptides were prepared in presence of the corresponding labeled Rap protein. After 15-min incubation at room temperature, samples were filled into standard Capillaries (K005, NanoTemper Technologies) and MST measurements were performed on a Monolith NT.115 (NanoTemper Technologies) in RED channel using 60% to 75% of LED excitation power and medium or high MST power for Rap^3T or Rap^105, respectively. […] Data analyses were performed with M.O. Affinity Analysis software (NanoTermper Technologies) applying cooperative (Hill coefficient) and non-cooperative (Kd model) models, with the first one yielding better fitting values.

[1] = test system: Rap^3T (PsrfA-3xYFP competence reporter); experiment: Competence reporter assay (PsrfA-3xYFP) in strain overexpressing Rap^3T; type: cell-based, Bacillus subtilis; conditions: strain 9834 hsRap(phi3T) Psrf-YFP, 1mM IPTG, 4hrs in MC, peptides added after 1 hr; for YFP, Mean: mean of 3 repeats
Text: (§1) Bacillus strains AES9822 (SacA::PsrfA-3xYFP Cm), AES9824 (SacA::PspoIIG-3xYFP Cm), AES9834 (sacA::Psrf-3xYFP cm amyE::hsRap^3T spec), and AES9836 ([…] cm amyE::hsRap^3T spec) were constructed by natural transformation of the pAEC1003, pAEC1103, and pAEC2836 (see next section) plasmids into a PY79;xpf background Bacillus subtilis strain.
For competence experiments, the expression levels of the srf promoter reporter were determinate in a liquid culture generated from a single colony that was inoculated into MC competence media. The strains were grown at 37° with shaking at 220 RPM, with or without addition of 1 mM IPTG. […]

[2] = test system: Rap^3T (PspoIIG-3xYFP sporulation reporter); experiment: Sporulation assay (PspoIIG-3xYFP reporter) in strain overexpressing Rap^3T; type: cell-based, Bacillus subtilis; conditions: strain 9836 hsRap(phi3T) PspoIIG-YFP, 1mM IPTG, 6 hrs in DSM, peptides added after 4.5hrs; for Mean %ON: mean of 3 repeats
Text: as §1
For sporulation experiments, the expression levels of spoIIG promoter reporter were determinate in a liquid culture from an overnight starter in LB were diluted 1:100 into Schaeffer’s sporulation medium (DSM). The strains were grown at 37° with shaking at 220 RPM, with or without addition of 1 mM IPTG. After 4.5 h of growth, peptides were added at a concentration of 10 μm. Following an additional 1.5 h of growth, YFP fluorescence was measured using a Beckman Coulter cytoflex flow cytometer.

Rap^105 = experiment: Thermal shift assay of Rap^105 with synthetic peptides; type: binding, phage phi105; conditions: 100 μm peptide, without supernatant incubation
Protocol: (§2) The thermal shift assay was conducted in a CFX Opus Real-Time PCR system (Biorad). Samples of 20 μl containing 20× Sypro Orange (Sigma-Aldrich) and 50 μm of protein in a 20 mM Tris (pH 8) and 250 mM NaCl buffer or filtered supernatant in peptide maturation assays (see below) were loaded in 96-well PCR plates. In the cases where peptide interaction was analyzed, synthetic peptides at a final concentration of 100 μm were added to the assays. Samples were heated from 20 to 85°C in steps of 1 degree. Fluorescent intensity was plotted versus temperature and integrated with either CFX Opus Real-Time PCR automate model or GraphPad Prism software using a Boltzmann model to calculate melting temperatures.

[3] = test system: extracellular proteases in supernatants of B. subtilis 168, WB800 and individual protease mutants; experiment: Peptide maturation assay with B. subtilis supernatants, read by Rap^105 thermal shift; type: biochemical, Bacillus subtilis; conditions: 100 μm peptide, 1 h room temperature; 8 single protease mutants
Protocol: Overnight cultures of either B. subtilis strains 168, WB800, Δmpr, Δbpr, ΔaprE, Δepr, ΔwprA, Δvpr, ΔnprB, ΔnprE in GM1 media were diluted 1:20 into GM1 media and incubated at 37°C at 250 rpm. After 2 h, the OD600 were measured and adjusted to 0.5 with GM1 media, and 1 ml of bacterial cultures were centrifuged at 8,000 g for 2 min at room temperature and the supernatants were filtered using 0,2 μm nitrocellulose filters; 1 μl of 10 mM synthetic version of the mature pheromones (RRGHTA, RRGHTAS, SRGHTS, RGHTS, ERPVGT, Imat1^3T, Imat2^3T, Imat1^105, Imat2^105, and Imat3^105) were added to 99 μl of supernatant obtaining a final concentration of 100 μm and incubated for 1 h at room temperature. After incubation, reaction was stopped by incubation at 95°C for 5 min and sample was kept and used in Thermal Shift Assays (see before). In the kinetic assays, samples were inactivated at different times by incubation at 95°C for 5 min. Experiments were validated by experimental triplicates of 3 biological replicates.
as §2

[4] = test system: extracellular proteases in supernatants of B. subtilis 168, WB800 and individual protease mutants; experiment: Peptide maturation assay with B. subtilis supernatants, read by Rap^3T thermal shift; type: biochemical, Bacillus subtilis; conditions: 100 μm peptide
Protocol: Overnight cultures of either B. subtilis strains 168, WB800, Δmpr, Δbpr, ΔaprE, Δepr, ΔwprA, Δvpr, ΔnprB, ΔnprE in GM1 media were diluted 1:20 into GM1 media and incubated at 37°C at 250 rpm. […] After incubation, reaction was stopped by incubation at 95°C for 5 min and sample was kept and used in Thermal Shift Assays (see before). In the kinetic assays, samples were inactivated at different times by incubation at 95°C for 5 min. Experiments were validated by experimental triplicates of 3 biological replicates.
as §2

[5] = test system: WprA and Bpr proteases (B. subtilis supernatants); experiment: Kinetic (time course) maturation assay of Imat1^3T in 168, WprA and Bpr KO supernatants; type: biochemical, Bacillus subtilis; conditions: samples inactivated at different times, Rap^3T thermal shift
Text: Fig 2 Propeptide maturation of Phr^3T and Phr^105 propeptides. Thermal shift assay experiments for maturation effect of supernatants from B. subtilis 168 and WB800 strains in immature version of the pheromones codified in Phr^3T (a) and Phr^105 (e), mean values of triplicates are plotted, 3 standard deviations from negative control maturation (WB800 supernatant) are highlighted in red. Error bars mark from the minimum to maximum values observed in the triplicates. Thermal shift assays with supernatants from B. subtilis 168, WB800, and individual protease mutant strains in maturation of peptides Imat2^3T(b), Imat1^105 (f), Imat2^105 (g) and Imat3^105 (h), mean values of triplicates are plotted, 3 standard deviations from negative control maturation (WB800 supernatant) are highlighted in red. Error bars mark from the minimum to maximum values observed in the triplicates. (c) Thermal shift slopes of the effect of individual mutations of 8 protease genes on Imat1^3T peptide maturation. (d) Kinetic assays comparing Imat1^3T peptide maturation in 168 supernatant and supernatants of WprA and Bpr protease KO mutants, relative maturation was calculated as fluorescence of the peak corresponding with the mature pheromone divided by the fluorescence of the peak corresponding with the non-maturated pheromone. […]

[6] = target: Rap^3T (Bacillus phage phi3T); experiment: MST; Rap^3T labelled with NT-647 (RED-NHS) at 20 nM; peptides in a 16-point 2-fold dilution from 2 to 3 x 10^-5 μm; 20 mM Tris-HCl (pH 8), 250 mM NaCl, 0.1% pluronic, 5% glycerol; 15 min at room temperature; Hill model
[7] = target: Rap^3T (Bacillus phage phi3T); experiment: thermal shift assay; Sypro Orange, 50 μm protein, 100 μm synthetic peptide, 20 mM Tris (pH 8), 250 mM NaCl (or filtered supernatant in the maturation assays), heated from 20 to 85°C

With SIGFTDGHSYDIASRGHTS [Long2] the EC50 (Rap^3T; MO.Affinity export, one merged set, target 2e-8, On Time evaluation, hot region 4-5, excitation power 10, confidence limits 0 and #NUM! (no real fit), read-out: EC50 (Hill fit), merged set) was 19800 nM.

In the case of RRGHTASIGFTDGHSYDIA, the “YFP, Mean” value [1] is reported as 8810.67, the “YFP, repeat I” value [1] is reported as 5838 and the “YFP, repeat II” value [1] is reported as 10641. For the same molecule, the “YFP, repeat III” value [1] was 9953, the “Mean %ON” value [2] was 42.9% and the “%ON (YFP), repeat I” value [2] was 59.6%. The “YFP, repeat I” value [2] was 5294, the “% ON (YFP), repeat II” value [2] was 39.8% and the “YFP, repeat II” value [2] was 2641. For the same molecule, the “% ON (YFP), repeat III” value [2] was 29.3% and the “YFP, repeat III” value [2] was 2055.

“ERPVGTLKLA [Imat1^105, immature synthetic peptide […]]” was tested, and the “stabilization of Rap^105 in thermal shift assay” value (Rap^105) was “minimal stabilization” and the “maturation by supernatants of individual protease mutants of B. subtilis 168 (Rap^105 thermal shift)” value (from here on “maturation … (Rap^105 thermal shift)”) [3] was “only for ΔwprA mutants”.

Work on RRGHTASIGFTDGHSYDIA [Long1] yielded an EC50 (Rap^3T; MST, Hill model, target 2e-8, MST-Power Medium, Nano - RED, 25.0°C, replicate 1 (first merge-set, c1), read-out: EC50 (Hill fit)) of 133 nM, an EC50 (Rap^3T; MST, Hill model, target 2e-8, MST-Power Medium, Nano - RED, 25.0°C, replicate 2 (second merge-set, c4), read-out: EC50 (Hill fit)) of 134 nM and an EC50 (Rap^3T; MST, Hill model, target 2e-8, MST-Power Medium, Nano - RED, 25.0°C, replicate 3 (third merge-set, c7), read-out: EC50 (Hill fit)) of 186 nM.

“LKLAERPVGT [Imat2^105, immature synthetic peptide […]]” was tested, and the “stabilization of Rap^105 in thermal shift assay” value (Rap^105) was “destabilization” and the “maturation … (Rap^105 thermal shift)” value [3] was “maturated for all the supernatants”.

With RRGHTASIGFTDGHSYDIA [Imat1^3T] the “maturation by B. subtilis 168 supernatant (Rap^3T thermal shift)” value ([4]; 1 h room temperature in filtered supernatant (GM1, OD600 0.5), stopped 95°C 5 min) was “effectively processed”, the “maturation by supernatants of individual protease mutants of B. subtilis 168 (Rap^3T thermal shift)” value ([4]; 1 h room temperature, 8 single protease mutants) was “the supernatants from the ΔwprA and Δbpr mutants showed 2 slopes” and the “maturation by B. subtilis WB800 (protease-deficient) supernatant (Rap^3T thermal shift)” value ([4]; 1 h room temperature, strain mutant in nprE, nprB, aprE, epr, bpr, mpr, vpr, wrpA) was “no increase in Rap^3T stabilization was observed”. For the same molecule, the “time course maturation with Δbpr supernatant” value [5] was “fully mature the peptide at longer incubation times”, the “time course maturation with ΔwprA supernatant” value [5] was “minimal maturation levels even at these times” and the “binding to Rap^3T (MST), in words” value (Rap^3T; MST) was “weak affinity”.

SIGFTDGHSYDIASRGHTS was tested, and the “YFP, Mean” value [1] was 8018.67, the “YFP, repeat I” value [1] was 5205 and the “YFP, repeat II” value [1] was 10226. For the same molecule, the “YFP, repeat III” value [1] was 8625, the “Mean %ON” value [2] was 37.1% and the “%ON (YFP), repeat I” value [2] was 51.1%. The “YFP, repeat I” value [2] was 4889, the “% ON (YFP), repeat II” value [2] was 30.7% and the “YFP, repeat II” value [2] was 2305. For the same molecule, the “% ON (YFP), repeat III” value [2] was 29.5% and the “YFP, repeat III” value [2] was 2121.

For “SSDVKITERPVGT [Imat0^105, immature synthetic peptide […]]”, the “stabilization of Rap^105 in thermal shift assay” value (Rap^105) was “destabilization” and the “maturation … (Rap^105 thermal shift)” value [3] was “reduced or null maturation activity in ΔnprE, Δbpr, and ΔwprA mutants”.

With RRGHTAS the EC50 [6] was 6.7 nM and the stabilization of the denaturation temperature [7] was over 20 °C.

Work on RRGHTA yielded an EC50 [6] of 5.28 nM, a dTm [7] of 75 °C and a stabilization of the denaturation temperature [7] of over 20 °C.

With RGHTS the EC50 [6] was 69.8 nM and the stabilization of the denaturation temperature [7] was over 20 °C.

Molecule SRGHTS has an EC50 [6] of 20.8 nM and a stabilization of the denaturation temperature [7] of over 20 °C.
